{"source": "patent US20260097036A1", "about": "(Kadmon Corporation, LLC, priority 2022, published 2026)", "key": {"[1]": {"conditions": "cited from earlier work"}, "[2]": {"assay": "stability study with pH modifiers, XRPD of isolated solids (samples 2.1-2.6)", "format": "physicochemical", "conditions": "T = 28 days 40° C./75% RH", "procedure": "Samples were prepared containing sodium benzoate as a preservative and with the pH adjusted with either citric acid or tartaric acid which were compared with samples having no pH modifier.\nThe above samples were prepared for XRPD analysis in three steps: solids were isolated by centrifugation at 3000 rpm for 20 minutes; the supernatant was decanted; and the samples were dried under vacuum at ambient temperature for 18-24 hours overnight. XRPD data of the solid samples was obtained."}, "animal models of cGVHD": {"test_system": "animal models of cGVHD", "conditions": "in vivo; cited from earlier work"}, "[3]": {"assay": "solubility and natural pH of the API", "format": "physicochemical"}, "[4]": {"assay": "Part 2 relative bioavailability and food effect, plasma PK", "format": "in vivo, human", "conditions": "for Tlag / AUC % extrap / Lambda-z / half-life / Tmax / AUC(0-inf) / AUC(0-t) / Cmax / Vd/F: plasma; for half-life / Tmax / AUC(0-inf) / AUC(0-t) / Cmax / Vd/F: male, human, 200 mg; for Cmax: read-out: Cmax; for Vd/F: read-out: Vz/F", "procedure": "Subjects underwent preliminary screening procedures to determine their eligibility for Part 2 of the study at the screening visit (Day −28 to Day −2 of Part 2). Subjects who took part in Part 1 of the study were permitted to take part in Part 2.\nThree different regimens (G, H, and I), were used over the three periods. In Regimen G, belumosudil was administered in Tablet form (reference); and in Regimens H and I, belumosudil was administered in the form of Oral Liquid Formulation.\nIn Period 1, Day 1: subjects were randomized prior to administration of the first dose of IMP to 1 of 6 treatment sequences (GHI, HIG, IGH, IHG, GIH and HGI) with 3 subjects assigned to each treatment sequence. On Day 1 of each study period (periods 1, 2 and 3), subjects received the regimens in Table 36:\nRegimen H was administered to subjects as a flavorless low sucralose liquid formulation in a fasted state, and Regimens G and I were administered to subjects in a fed state. Regimen G was administered with a total of 240 mL of water. For Regimens H and I, immediately after IMP administration, subjects consumed water to a total volume of 240 mL (including the dosing volume).\nSubjects received a single dose of IMP in the morning of Day 1 following an overnight fast of a minimum of 10 h (Regimen H, fasted state) or following a standard breakfast (Regimens G and I, fed state). Blood samples were collected at regular intervals for PK analysis. Following administration of Regimen H, subjects completed a written taste/palatability questionnaire individually and privately.\nSubjects were resident in the clinical unit for 10 consecutive nights that covered all 3 treatment periods. All subjects remained on site until 72 h post-final dose for safety and PK assessments. There was a minimum washout of 3 days between each IMP administration. To ensure the ongoing wellbeing of the subjects, a follow-up phone call took place 3 to 7 days post-final dose. If a subject reported any AEs after discharge which represented a cause for concern, they were required to attend the clinical unit for a follow-up assessment. This would have been an unscheduled visit."}, "pro-fibrotic signaling": {"test_system": "pro-fibrotic signaling", "conditions": "in vitro; cited from earlier work"}, "[5]": {"assay": "excipient compatibility testing of dry binary mixes", "format": "physicochemical", "conditions": "binary mixes 1:1; 2-8° C. and 40° C./75% RH, over a 14-day period", "procedure": "The dry binary mixes were analyzed for appearance and related substances after storage at 2-8° C. (control storage condition) and 40° C./75% RH for 14 days and 28 days. The binary mixes were also tested for visual appearance at initial mixing."}, "[6]": {"conditions": "po, Regimen G: 200 mg Tablet, Fed, single oral dose, geometric mean (CV%)"}, "[7]": {"conditions": "po, Regimen H: 200 mg Liquid Formulation, Fasted, single oral dose, geometric mean (CV%)"}, "[8]": {"conditions": "po, Regimen I: 200 mg Liquid Formulation, Fed, single oral dose, geometric mean (CV%)"}}, "note": "Where two headings read alike, the source gives them in different places.", "data": [{"compound": "CC(C)NC(=O)COc1cccc(-c2nc(Nc3ccc4[nH]ncc4c3)c3ccccc3n2)c1", "note": "[Belumosudil, 2-{3-[4-(1H-indazol-5-ylamino)-2-quinazolinyl]phenoxy}-N-(propan-2-yl)acetamide, reference compound]", "values": [{"measurement": "solubility in water", "setting": "[1]", "value": "practically insoluble"}, {"measurement": "XRPD of isolated solids (form stability)", "setting": "[2]", "value": "stable in the formulation"}, {"measurement": "activity in animal models of cGVHD", "setting": "animal models of cGVHD", "value": "demonstrated activity"}, {"measurement": "natural pH of API in water", "setting": "[3]; API in water", "value": "~3", "unit": "pH"}, {"measurement": "solubility", "setting": "[3]; at pH 2.0-3.0", "value": "soluble"}, {"measurement": "Tlag", "setting": "[4]; Regimen G: 200 mg Tablet, Fed, single oral dose, healthy male volunteers, median (range)", "value": 0.500, "unit": "h"}, {"measurement": "AUC % extrap", "setting": "[4]; Regimen G: 200 mg Tablet, Fed, single oral dose, geometric mean (CV%)", "value": "2.601 (44.8%)"}, {"measurement": "Lambda-z", "setting": "[4]; Regimen G: 200 mg Tablet, Fed, single oral dose, geometric mean (CV%), individual values where n <= 2", "value": "0.074 (57.7%) l/h"}, {"measurement": "Tlag", "setting": "[4]; Regimen H: 200 mg Liquid Formulation, Fasted, single oral dose, healthy male volunteers, median (range)", "value": 0.00, "unit": "h"}, {"measurement": "AUC % extrap", "setting": "[4]; Regimen H: 200 mg Liquid Formulation, Fasted, single oral dose, geometric mean (CV%)", "value": "2.785 (50.4%)"}, {"measurement": "Lambda-z", "setting": "[4]; Regimen H: 200 mg Liquid Formulation, Fasted, single oral dose, geometric mean (CV%), individual values where n <= 2", "value": "0.073 (43.5%) l/h"}, {"measurement": "Tlag", "setting": "[4]; Regimen I: 200 mg Liquid Formulation, Fed, single oral dose, healthy male volunteers, median (range)", "value": 0.00, "unit": "h"}, {"measurement": "AUC % extrap", "setting": "[4]; Regimen I: 200 mg Liquid Formulation, Fed, single oral dose, geometric mean (CV%)", "value": "1.918 (34.9%)"}, {"measurement": "Lambda-z", "setting": "[4]; Regimen I: 200 mg Liquid Formulation, Fed, single oral dose, geometric mean (CV%), individual values where n <= 2", "value": "0.102 (49.2%) l/h"}, {"measurement": "peak (Cmax) and total exposure (AUC), liquid formulation vs tablet", "setting": "[4]; both in the fed state, GMR comparison", "value": "largely similar to that of the tablet reference"}, {"measurement": "time from which concentrations were evident", "setting": "[4]; liquid formulation, fasted and fed (Regimens H and I)", "value": 0.5, "unit": "h"}, {"measurement": "half-life", "setting": "[4]; oral, Regimen G, tablet fed, read-out: elimination half-lives (range)", "value": "4.84 to 33", "unit": "h"}, {"measurement": "half-life", "setting": "[4]; oral, Regimen H, liquid formulation fasted, read-out: elimination half-lives (range)", "value": "5.36 to 23.8", "unit": "h"}, {"measurement": "half-life", "setting": "[4]; oral, Regimen I, liquid formulation fed, read-out: elimination half-lives (range)", "value": "2.38 to 15.7", "unit": "h"}, {"measurement": "half-life", "setting": "[4]; oral, Regimens G, H, I, read-out: geometric mean half-life (range over regimens)", "value": "6.79 to 9.5", "unit": "h"}, {"measurement": "Tmax", "setting": "[4]; po, Regimen G: 200 mg Tablet, Fed, single oral dose, healthy male volunteers, median (range), read-out: Tmax", "value": 3, "unit": "h"}, {"measurement": "AUC(0-inf)", "setting": "[4]; [6]", "value": 10200, "unit": "ng·h/mL"}, {"measurement": "half-life", "setting": "[4]; po, Regimen G: 200 mg Tablet, Fed, single oral dose, geometric mean (CV%), individual values where n <= 2, read-out: T1/2 (converted)", "value": 9.39, "unit": "h"}, {"measurement": "AUC(0-t)", "setting": "[4]; po, Regimen G: 200 mg Tablet, Fed, single oral dose, geometric mean (CV%), read-out: AUC (0-24)", "value": 9310, "unit": "ng·h/mL"}, {"measurement": "AUC(0-t)", "setting": "[4]; po, Regimen G: 200 mg Tablet, Fed, single oral dose, geometric mean (CV%), read-out: AUC (0-last)", "value": 9720, "unit": "ng·h/mL"}, {"measurement": "Cmax", "setting": "[4]; [6]", "value": 1930, "unit": "ng/mL"}, {"measurement": "Vd/F", "setting": "[4]; [6]", "value": 265, "unit": "L"}, {"measurement": "Tmax", "setting": "[4]; po, Regimen H: 200 mg Liquid Formulation, Fasted, single oral dose, healthy male volunteers, median (range), read-out: Tmax", "value": 1.5, "unit": "h"}, {"measurement": "AUC(0-inf)", "setting": "[4]; [7]", "value": 8430, "unit": "ng·h/mL"}, {"measurement": "half-life", "setting": "[4]; po, Regimen H: 200 mg Liquid Formulation, Fasted, single oral dose, geometric mean (CV%), individual values where n <= 2, read-out: T1/2 (converted)", "value": 9.5, "unit": "h"}, {"measurement": "AUC(0-t)", "setting": "[4]; po, Regimen H: 200 mg Liquid Formulation, Fasted, single oral dose, geometric mean (CV%), read-out: AUC (0-24)", "value": 7620, "unit": "ng·h/mL"}, {"measurement": "AUC(0-t)", "setting": "[4]; po, Regimen H: 200 mg Liquid Formulation, Fasted, single oral dose, geometric mean (CV%), read-out: AUC (0-last)", "value": 8010, "unit": "ng·h/mL"}, {"measurement": "Cmax", "setting": "[4]; [7]", "value": 1550, "unit": "ng/mL"}, {"measurement": "Vd/F", "setting": "[4]; [7]", "value": 325, "unit": "L"}, {"measurement": "AUC(0-inf)", "setting": "[4]; [8]", "value": 9500, "unit": "ng·h/mL"}, {"measurement": "half-life", "setting": "[4]; po, Regimen I: 200 mg Liquid Formulation, Fed, single oral dose, geometric mean (CV%), individual values where n <= 2, read-out: T1/2 (converted)", "value": 6.79, "unit": "h"}, {"measurement": "AUC(0-t)", "setting": "[4]; po, Regimen I: 200 mg Liquid Formulation, Fed, single oral dose, geometric mean (CV%), read-out: AUC (0-24)", "value": 9340, "unit": "ng·h/mL"}, {"measurement": "AUC(0-t)", "setting": "[4]; po, Regimen I: 200 mg Liquid Formulation, Fed, single oral dose, geometric mean (CV%), read-out: AUC (0-last)", "value": 9570, "unit": "ng·h/mL"}, {"measurement": "Cmax", "setting": "[4]; [8]", "value": 1790, "unit": "ng/mL"}, {"measurement": "Vd/F", "setting": "[4]; [8]", "value": 206, "unit": "L"}, {"measurement": "Tmax", "setting": "[4]; po, single oral 200 mg as liquid formulation, fasted state, read-out: median Tmax", "value": 1.5, "unit": "h"}, {"measurement": "Tmax", "setting": "[4]; po, single oral 200 mg as tablet reference, fed, read-out: median Tmax", "value": 3, "unit": "h"}, {"measurement": "aberrant pro-fibrotic signaling", "setting": "pro-fibrotic signaling", "value": "inhibited aberrant pro-fibrotic signaling"}, {"measurement": "compatibility with hydrochloric acid and maleic acid", "setting": "[5]", "value": "not compatible"}]}]}
